# Test results taken from patent publication US7438926B2, “Methods for inhibiting decrease in transdermal drug flux by inhibition of pathway closure” (Alza Corporation, priority 2000, dated 2008).
# Where “and” joins values, the source holds several entries; their conditions need not be identical. Identical values can stand only once. Counter-ions that a name gives are not always drawn. Ends that are not written are not given here.
# Assays:
# [1] = tested on: pathway closure; experiment: Inhibition of pathway closure by chemicals, methylene blue dye score after microprotrusion array pretreatment; type: in vivo, hairless guinea pigs
# Description: Inhibition of pathway collapse by chemical agents was studied following pretreatment of the skin with a microprotrusion array and application of a formulation containing the agent for 24 h. Quantitation was performed by evaluation of dye impregnation of the pathways.
# Application of the microprotrusion array was performed with an impact applicator. […] Following application, the stretching tension was released. […] The guinea pig received a second system containing a different formulation on the opposite site. Twenty four hours after application, three systems from each group were removed and residual formulation washed from the skin. The skin was stained with a 1% methylene blue solution. Excess dye was thoroughly removed with 70% isopropyl alcohol pads and a picture of the site was taken. Pictures were scored on a 0 to 5 scale, 5 being the dye uptake obtained immediately following microprotrusion array application and 0 being the dye uptake obtained after 24 h contact with a control formulation. A score of 0.5 or greater was considered significant. Various osmotic agents, anticoagulants, antiinflammatory agents, gelling agents as well as gels of different pH and various additives were tested (Table II).
# [2] = Passive intracutaneous delivery of plasmid DNA vaccine with microprotrusion array (skin biopsy, PCR); type: in vivo, hairless guinea pigs; conditions: for Increase in plasmid DNA delivered as compared to the control formulation: at one hour, 3% citric acid trisodium salt or 1% Tween 80 in formulation
# Description: Feasibility studies were conducted in hairless guinea pigs (HGPs) to determine whether passive intracutaneous delivery of a plasmid DNA vaccine (pCMV-AYW-HBs-Mkan), which encodes for hepatitis B surface antigen [HBsAg]), could be achieved using Macroflux. […] Application of the microprotrusion array was performed with an impact applicator. The system applied comprised a foam double adhesive ring (diameter 2.5 cm, thickness 0.08 cm) with a 1 cm^2 reservoir in the middle.
# One of two configurations of microprotrusion arrays were used. Each configuration has a total surface area of 2 cm^2 and an active total blade surface area of 1 cm^2.
# A microprotrusion array of the selected type was adhered to the adhesive foam and covered the bottom of the reservoir (after application, the microprotrusion array is in contact with the skin). Following application, the stretching tension was released and the microprotrusion array was left in situ. […] At 1 hour after application, two systems from each group were removed and residual formulation washed from the skin. The amount of drug penetrated at that time was determined in a 6 mm diameter full thickness skin biopsy taken at the skin site. The biopsy was dissolved in a digestion buffer (sodium dodecyl sulfate/proteinase K) and relevant DNA content was evaluated by polymerase chain (PCR) reaction followed by electrophoresis of the PCR product. A positive control group was included which consisted of 10 μg plasmid DNA injected intradermally. Negative controls consisted of the plasmid DNA applied on the skin without the use of a microprotrusion array. […].
# [3] = additive concentration 0.05%, 24 h, scale 0 to 5, 0.5 or greater significant
# [4] = additive concentration 1%, 24 h, scale 0 to 5, 0.5 or greater significant
# [5] = additive concentration 23%, 24 h, scale 0 to 5, 0.5 or greater significant
# [6] = additive concentration 50%, 24 h, scale 0 to 5, 0.5 or greater significant
# [7] = additive concentration 11%, 24 h, scale 0 to 5, 0.5 or greater significant
# [8] = 24 h, methylene blue evaluation, Table II
# [9] = additive concentration 2%, 24 h, scale 0 to 5, 0.5 or greater significant
# [10] = additive concentration 10%, 24 h, scale 0 to 5, 0.5 or greater significant
# [11] = additive concentration 30%, 24 h, scale 0 to 5, 0.5 or greater significant
# [12] = additive concentration 12%, 24 h, scale 0 to 5, 0.5 or greater significant
# [13] = additive concentration 13%, 24 h, scale 0 to 5, 0.5 or greater significant
# [14] = additive concentration 5%, 24 h, scale 0 to 5, 0.5 or greater significant
compound,measurement,setting,value
Insulin [reference compound],Score (methylene blue),"[1]; additive concentration 3 mM, 24 h, scale 0 to 5, 0.5 or greater significant",0.2 ± 0.2
SIKVAV [reference compound],Score (methylene blue),[1]; [3],0.5 ± 0.5
Arg-Gly-Asp [reference compound],Score (methylene blue),[1]; [4],0.7 ± 0.4
O=C(O)CN(CCN(CC(=O)O)CC(=O)O)CC(=O)O [EDTA],Effect on pathway closure (in words),"[1]; guinea pig, in vivo",most effective agents in preventing pathway closure
same,Score (methylene blue),"[1]; guinea pig, in vivo",1.3 ± 0.2
Tyr-Ile-Gly-Ser-Arg-NH2 (YIGSR-NH2) [reference compound],Score (methylene blue),[1]; [3],0.3 ± 0.3
O=C[C@@H](O)[C@H](O)[C@@H](O)[C@@H](O)CO [L-Glucose],Score (methylene blue),[1]; [5],3.5 ± 0.3
CCCCCCCCCCCCCCCC[n+]1ccccc1 [Cetyl pyridinium chloride],Score (methylene blue),"[1]; guinea pig, in vivo",0 ± 0
PEG-12,Score (methylene blue),[1]; [6],0 ± 0
CCCCCCCCCCCCOS(=O)(=O)[O-].[Na+] [Sodium dodecyl sulfate],Score (methylene blue),"[1]; additive concentration 0.01%, 24 h, scale 0 to 5, 0.5 or greater significant",0 ± 0
"O=C(O)CC(O)C(=O)O (stereo not drawn) [Malic acid, disodium salt]",Score (methylene blue),[1]; [7],2.1 ± 0.3
OC[C@@H](O)[C@@H](O)[C@H](O)[C@@H](O)CO [Sorbitol],Effect on pathway closure (in words),[1]; [8],most effective agents
same,Score (methylene blue),[1]; [7],1.3 ± 0.6
same,Score (methylene blue),[1]; [5],3.3 ± 0.3
same,Score (methylene blue),[1]; [6],3.3 ± 0.3
CCC(O)CO (stereo not drawn) [1-2 Butane diol],Score (methylene blue),"[1]; guinea pig, in vivo",2.0 ± 0.8
[Cl-].[Na+] [NaCl],Score (methylene blue),"[1]; guinea pig, in vivo",1.8 ± 0.2
"CC(C(=O)O)c1cccc(C(=O)c2ccccc2)c1 (stereo not drawn) [Ketoprofen Na, reference compound]",Effect on pathway closure (in words),[1]; [8],significant effect
same,Score (methylene blue),[1]; [9],2.3 ± 0.6
OCCOCCOCCO [Triethylene glycol],Score (methylene blue),[1]; [10],1.3 ± 0.3
same,Score (methylene blue),[1]; [11],3.3 ± 0.3
same,Score (methylene blue),[1]; [6],3.7 ± 0.3
OC[C@H]1O[C@@](CO)(O[C@H]2O[C@H](CO)[C@@H](O)[C@H](O)[C@H]2O)[C@@H](O)[C@@H]1O [Sucrose],Score (methylene blue),[1]; [6],1.7 ± 0.6
C[S+](C)[O-] [Dimethylsulfoxide],Score (methylene blue),[1]; [10],1.0 ± 0.0
CCO [Ethanol],Score (methylene blue),"[1]; additive concentration 0% (4.3 M), 24 h, scale 0 to 5, 0.5 or greater significant",0 ± 0
OC[C@H]1O[C@H](O[C@H]2O[C@H](CO)[C@@H](O)[C@H](O)[C@H]2O)[C@H](O)[C@@H](O)[C@@H]1O [Trehalose],Score (methylene blue),[1]; [6],1.5 ± 0.0
"O=C(O)C(O)C(O)C(=O)O (stereo not drawn) [Tartaric acid, disodium salt]",Score (methylene blue),[1]; [12],1.5 ± 0.4
O=C([O-])[C@H](O)[C@@H](O)[C@H](O)[C@H](O)CO.[Na+] [Gluconic acid sodium salt],Score (methylene blue),[1]; [10],2.7 ± 0.2
same,Score (methylene blue),[1]; [13],3.3 ± 0.0
same,Score (methylene blue),[1]; [11],4.5 ± 0.0
OC[C@@H](O)[C@@H](O)CO [Erythritol],Score (methylene blue),[1]; [11],3.3 ± 0.4
CCCCCCCC/C=C\CCCCCCCC(=O)OCCOCC(OCCO)C1OCC(OCCO)C1OCCO (stereo not drawn) [Tween 80],Increase in plasmid DNA delivered as compared to the control formulation,[2],no significant enhancement
CCOCCOCCO [Ethoxydiglycol],Score (methylene blue),[1]; [6],0.5 ± 0.3
O=C[C@H](O)[C@H](O)[C@H](O)CO [Ribose],Score (methylene blue),[1]; [6],2.3 ± 0.3
CC(C)O [Isopropyl alcohol],Score (methylene blue),[1]; [11],0.2 ± 0.2
O=C(O)CC(O)(CC(=O)O)C(=O)O [citric acid trisodium salt],Comparison between formulation groups,[2]; 1 hour,most efficient formulation
same,Increase in plasmid DNA delivered as compared to the control formulation,[2],more than 10 fold
Cl.N [Ammonium chloride],Score (methylene blue),"[1]; guinea pig, in vivo",2.6 ± 0.1
CC(O)CO (stereo not drawn) [Propylene glycol],Score (methylene blue),[1]; [11],0.7 ± 0.2
same,Score (methylene blue),[1]; [6],1.3 ± 0.1
same,Score (methylene blue),"[1]; additive concentration 70%, 24 h, scale 0 to 5, 0.5 or greater significant",1.0 ± 0.6
[Ca+2].[Cl-].[Cl-] [Calcium chloride],Score (methylene blue),"[1]; guinea pig, in vivo",0.7 ± 0.4
PEG-4,Score (methylene blue),[1]; [6],2 ± 0.6
O=C[C@H](O)[C@@H](O)[C@H](O)[C@H](O)C(=O)[O-].[Na+] [Glucuronic acid sodium salt],Effect on pathway closure (in words),[1]; [8],most effective agents
same,Score (methylene blue),[1]; [14],1.0 ± 0.0
same,Score (methylene blue),[1]; [10],3.5 ± 0.3
same,Score (methylene blue),[1]; [13],3.0 ± 0.3
OCCCCO [1-4 Butane diol],Score (methylene blue),"[1]; guinea pig, in vivo",3.0 ± 0.3
NCC(=O)O [Glycine],Score (methylene blue),"[1]; additive concentration 9%, 24 h, scale 0 to 5, 0.5 or greater significant",1.8 ± 0.3
OC[C@@H](O)[C@@H](O)[C@@H](O)CO [Adonitol],Effect on pathway closure (in words),[1]; [8],most effective agents
same,Score (methylene blue),[1]; [7],3.0 ± 0.3
same,Score (methylene blue),[1]; [5],3.5 ± 0.3
same,Score (methylene blue),[1]; [6],3.7 ± 0.3
O=C(O)c1ccccc1O [salicylic acid],Effect on pathway closure (in words),[1]; [8],had an effect on pathway closure
"C[C@H]1C[C@H]2[C@@H]3CCC4=CC(=O)C=C[C@]4(C)[C@@]3(F)[C@@H](O)C[C@]2(C)[C@@]1(O)C(=O)COP(=O)([O-])[O-].[Na+].[Na+] [Betamethasone phospate Na, reference compound]",Effect on pathway closure (in words),[1]; [8],significant effect
same,Score (methylene blue),[1]; [9],2.3 ± 0.4
CC(O)C(C)O (stereo not drawn) [2-3 Butane diol],Score (methylene blue),"[1]; guinea pig, in vivo",2.2 ± 0.2
Heparin [reference compound],Score (methylene blue),[1]; [9],0.3 ± 0.2
O=C(O)CC(O)(CC(=O)O)C(=O)O [Citric acid disodium salt],Score (methylene blue),"[1]; additive concentration 0.5%, 24 h, scale 0 to 5, 0.5 or greater significant",0 ± 0
same,Score (methylene blue),[1]; [4],0.3 ± 0.2
same,Score (methylene blue),"[1]; additive concentration 3%, 24 h, scale 0 to 5, 0.5 or greater significant",1.2 ± 0.2
O=C[C@H](O)[C@@H](O)[C@H](O)[C@H](O)CO [D-Glucose],Effect on pathway closure (in words),[1]; [8],most effective agents
same,Score (methylene blue),[1]; [14],1.5 ± 0.0
same,Score (methylene blue),[1]; [7],1.8 ± 0.6
same,Score (methylene blue),[1]; [5],3.5 ± 0.5
same,Score (methylene blue),[1]; [6],4.0 ± 0.3
"O=C(O)CO [Glycolic acid, sodium salt]",Score (methylene blue),"[1]; additive concentration 6%, 24 h, scale 0 to 5, 0.5 or greater significant",1.7 ± 0.1
same,Score (methylene blue),[1]; [12],2.6 ± 0.1
same,Score (methylene blue),"[1]; additive concentration 24%, 24 h, scale 0 to 5, 0.5 or greater significant",2.7 ± 0.1
Laminin,Score (methylene blue),[1]; [3],1.0 ± 0.3
OCCOCCO [Diethylene glycol],Effect on pathway closure (in words),"[1]; guinea pig, in vivo",most effective agents
same,Score (methylene blue),"[1]; guinea pig, in vivo",3.2 ± 0.2
PEG-350,Score (methylene blue),[1]; [6],0 ± 0
CC(=O)[O-].[Na+] [Sodium acetate],Score (methylene blue),"[1]; guinea pig, in vivo",1.7 ± 0.1
O[C@H]1[C@H](O)[C@@H](O)[C@H](O)[C@@H](O)[C@H]1O [Inositol],Score (methylene blue),[1]; [10],1.5 ± 0.3
Cl.NC(CO)(CO)CO [Tromethamine hydrochloride],Effect on pathway closure (in words),"[1]; guinea pig, in vivo",most effective agents
same,Score (methylene blue),"[1]; guinea pig, in vivo, hydrochloride",3.7 ± 0.3 and 2.3 ± 0.3
"C=C1[C@@H](C)[C@H]2[C@H](Cc3ccccc3)NC(=O)[C@]23[C@H](OC(C)=O)/C=C/[C@@](C)(O)C(=O)[C@@H](C)C/C=C/[C@H]3[C@@H]1O [Cytochalasin D, reference compound]",Score (methylene blue),"[1]; additive concentration 0.025%, 24 h, scale 0 to 5, 0.5 or greater significant",1.5 ± 0.0
CC(O)CCO (stereo not drawn) [1-3 Butane diol],Score (methylene blue),"[1]; guinea pig, in vivo",0.2 ± 0.2
CC(=O)O.N [Ammonium acetate],Score (methylene blue),"[1]; guinea pig, in vivo",2.1 ± 0.1
Cl.N[C@H]1C(O)O[C@H](CO)[C@H](O)[C@@H]1O (stereo partly drawn) [Galactosamine hydrochloride],Score (methylene blue),[1]; [6],2.8 ± 0.3
